Reference: PubChem BioAssay (NCI)
Where “and” joins values, the source holds several entries; their conditions need not be identical. Equal values may be shown once.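 Interpolation was linear, between the two tested concentrations surrounding the appropriate level; five concentrations were tested over 48 hours in 96-well plates. GI50 = concentration required for 50% inhibition of growth. TGI is the concentration that stops growth completely.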

Tests used:
Experiment in all cases: growth of human tumour cells (NCI), 48 h
NCI-H460 lung = system: NCI-H460 lung
KM12 colon = system: KM12 colon
CCRF-CEM leukemia = system: CCRF-CEM leukemia
UO-31 renal = system: UO-31 renal
HOP-92 NSCLC = system: HOP-92 NSCLC
OVCAR-4 ovarian = system: OVCAR-4 ovarian
SK-MEL-5 melanoma = system: SK-MEL-5 melanoma
M14 melanoma = system: M14 melanoma
786-0 renal = system: 786-0 renal
TK-10 renal = system: TK-10 renal

SMILES	GI50 (NCI-H460 lung)	TGI (NCI-H460 lung)	GI50 (KM12 colon)	TGI (KM12 colon)	GI50 (CCRF-CEM leukemia)	TGI (CCRF-CEM leukemia)	GI50 (UO-31 renal)	TGI (UO-31 renal)	GI50 (HOP-92 NSCLC)	TGI (HOP-92 NSCLC)	GI50 (OVCAR-4 ovarian)	TGI (OVCAR-4 ovarian)	GI50 (SK-MEL-5 melanoma)	TGI (SK-MEL-5 melanoma)	GI50 (M14 melanoma)	TGI (M14 melanoma)	GI50 (786-0 renal)	TGI (786-0 renal)	GI50 (TK-10 renal)	TGI (TK-10 renal)
O=S1(=O)NCCCN1CCNc1nccc(-c2c(-c3cccc(O)c3)nc3sccn23)n1	21.5 µM	> 100 µM	33.3 µM	> 90.4 µM	13.5 µM	> 100 µM	37 µM	> 96.6 µM	27.3 µM	> 93.5 µM	17.5 µM	> 96.1 µM	1.71 µM	17.3 µM	0.366 µM	15.5 µM	14.4 µM	> 100 µM	33.6 µM	> 100 µM
O=S(=O)(CCOCc1ccc(-c2ccc3ncnc(Nc4ccc(OCc5cccc(F)c5)c(Cl)c4)c3c2)o1)c1ccccc1	> 25 µM	> 25 µM	> 25 µM	> 25 µM	> 25 µM	> 25 µM	> 7.54 µM	> 25 µM	> 25 µM	> 25 µM	> 25 µM	> 25 µM	> 25 µM	> 25 µM	> 25 µM	> 25 µM	> 25 µM	> 25 µM	1.17 µM	> 25 µM
CC1CCCc2c1nn(C(=O)/C=C(\N)c1ccccc1)c2N (centres undefined)	4.23 µM	> 100 µM	5.97 µM	> 100 µM	6.8 µM	> 100 µM	3.92 µM	> 100 µM	10.3 µM	95.7 µM	12.8 µM	> 100 µM	4.35 µM	45.7 µM	12.3 µM	> 100 µM	16.2 µM	> 100 µM	28.9 µM	> 100 µM
O=C1C(Cl)=C(Nc2ccccc2)C(=O)c2ccccc21	27.2 µM	> 100 µM	6.23 µM	> 100 µM	2.37 µM	> 100 µM	1.41 µM	2.97 µM	1.28 µM	2.64 µM	1.63 µM	3 µM	1.5 µM	2.89 µM	1.88 µM	3.57 µM	6.57 µM	19.6 µM	11 µM	> 100 µM
OC(CN1CC1)C(O)CN1CC1 (centres undefined)	> 50 µg/mL	> 50 µg/mL	> 50 µg/mL	> 50 µg/mL	> 50 µg/mL	> 50 µg/mL	> 50 µg/mL	> 50 µg/mL	> 50 µg/mL	> 50 µg/mL	> 50 µg/mL	> 50 µg/mL	> 50 µg/mL	> 50 µg/mL	> 50 µg/mL	> 50 µg/mL	> 50 µg/mL	> 50 µg/mL	> 50 µg/mL	> 50 µg/mL
Cc1nnc(N/N=C(/C(=O)C(C#N)c2ccccc2)C(C#N)c2ccccc2)n1N (centres undefined)	–	12.6 µM	–	> 55.4 µM	–	15.9 µM	–	> 56.5 µM	–	> 100 µM	–	> 54.9 µM	–	32.7 µM	–	31.2 µM	–	25 µM	–	> 100 µM
COc1c(Br)cc(Br)c(OC)c1-c1[nH]c(Br)c(Br)c1Br	–	32.8 µM	–	21.1 µM	–	20.5 µM	–	8.73 µM	–	7.79 µM	–	16.3 µM	–	20.5 µM	–	20.6 µM	–	22.8 µM	–	24.7 µM
Cn1c([N+](=O)[O-])cnc1/C=C1\Oc2cc(Cl)ccc2C1=O	0.297 µM	3.4 µM	0.501 µM	6.78 µM	0.148 µM	0.754 µM	0.25 µM	1.3 µM	1.32 µM	5.14 µM	2.48 µM	> 21.5 µM	0.289 µM	1.22 µM	0.499 µM	4.61 µM	1.08 µM	4.75 µM	1.33 µM	4.81 µM
Cc1nc(Nc2n[nH]c3c2CN(C(=O)N[C@H](CN(C)C)c2ccccc2)C3(C)C)c2sccc2n1	0.0132 µM and 0.0223 µM	> 4.07 µM and 10.7 µM	0.0493 µM and 0.0739 µM	> 4.68 µM and 4.45 µM	0.286 µM and 0.4 µM	> 25.1 µM	0.229 µM and 1.28 µM	> 4.67 µM and 42.3 µM	–	2.7 µM and 0.47 µM	0.615 µM and 1.39 µM	> 6.95 µM and 8.37 µM	0.142 µM and 0.162 µM	1.84 µM and 2.26 µM	0.0586 µM and 0.103 µM	> 3.22 µM and 8.37 µM	0.281 µM and 0.82 µM	4.75 µM and 4.45 µM	0.0982 µM and 0.491 µM	3.92 µM and 6.08 µM
CC(=O)NNc1nc(C)c(C(=O)NNC(=O)C(=O)Nc2nc3ccc([N+](=O)[O-])cc3s2)s1	–	> 100 µM	–	> 100 µM	–	56.5 µM	–	> 100 µM	–	> 100 µM	–	> 100 µM	–	> 81.5 µM	–	> 100 µM	–	> 100 µM	–	> 100 µM
NC(N)=NS(=O)(=O)c1ccc(NC(=O)c2cccc3c(Nc4ccc(S(N)(=O)=O)cc4)c4ccccc4nc23)cc1	–	> 100 µM	–	> 100 µM	–	> 100 µM	–	> 100 µM	–	> 100 µM	–	> 100 µM	–	> 100 µM	–	> 100 µM	–	> 100 µM	–	> 100 µM
COc1ccc(-c2nnc(N3CCN(C(=O)CN4CCN(c5ccc(OC)cc5)CC4)CC3)nc2-c2ccc(OC)cc2)cc1	15.4 µM	> 62.3 µM	2.93 µM	8.4 µM	3.02 µM	6.06 µM	12.5 µM	39.7 µM	16.1 µM	35.2 µM	3.47 µM	12.5 µM	2.4 µM	6.83 µM	2.6 µM	6.28 µM	15.3 µM	40.6 µM	19 µM	62.5 µM
O=C/C(=C(/Cl)c1ccc(O)cc1)c1ccccc1	–	> 100 µM	–	> 100 µM	–	> 100 µM	–	61.8 µM	–	50.7 µM	–	> 54 µM	–	48.9 µM	–	> 57.1 µM	–	> 66.3 µM	–	> 56 µM
CCN(CC)CCNC(=O)c1c(C)[nH]c(/C=C2\C(=O)Nc3ccc(F)cc32)c1C	2 µM and 2.19 µM	> 10 µM and 5.78 µM and 13.1 µM	0.11 µM and 0.1 µM and 0.0322 µM	> 10 µM and 3.03 µM and 5.54 µM	5.62 µM and 6.48 µM and 1.89 µM	> 10 µM and 20 µM and 8.85 µM	0.629 µM and 1.26 µM and 1.29 µM	> 10 µM and 4.59 µM and 8.07 µM	0.831 µM and 0.439 µM	9.01 µM and 3.05 µM	> 10 µM and 2.41 µM and 2.76 µM	> 10 µM and 9.23 µM and 15 µM	1.66 µM and 2.88 µM and 1.5 µM	4.5 µM and 5.62 µM and 2.92 µM	0.574 µM and 1.03 µM and 0.687 µM	2.33 µM and 3.56 µM and 2.23 µM	4.13 µM and 3.07 µM and 2.3 µM	> 10 µM and 6.16 µM and 7.76 µM	2.78 µM and 2.01 µM and 5.52 µM	> 10 µM and 5.81 µM and 20.9 µM
